The text below walks through data of PubChem BioAssay (NCI).

Experiment in all cases: NCI-60 cell line screen, 48 h
Test [1] has as its system HL-60(TB) leukemia.
In test [2] the test system is 786-0 renal.
The subject of test [3] is HT29 colon.
The subject of test [4] is OVCAR-8 ovarian.
The subject of test [5] is SK-OV-3 ovarian.
Test [6] deals with NCI-H226 lung.
The test system of test [7] is UACC-62 melanoma.
Test [8] concerns MDA-MB-435.
For test [9], the system named is MDA-MB-231 breast.

Structures are written as SMILES.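 These data come from cells grown in 96-well plates and exposed to compound for 48 hours at five concentrations. The concentration for 50% growth inhibition is given as GI50. TGI: concentration producing complete growth inhibition.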

As for `CC(NS(=O)(=O)c1ccc([N+](=O)[O-])cc1)C(=O)O` (configuration not stated), the TGI in test [1], in test [2], in test [3], in test [4], in test [5] and in test [6] was over 100 µM each time. The compound also had a TGI in test [7] of over 100 µM.

Take `COc1cccc2c1C(=O)C=CC2=O`: the TGI came out at 1.09 µM in [1]; 26.2 µM in [8]; 23.9 µM in test [2]; 26.9 µM in [3]; 9.97 µM in test [4]; 36.2 µM in [5]. Also, the TGI was found to be 38.3 µM in test [6], 25.3 µM in test [7] and 4.76 µM in test [9].

Take `COc1ccccc1/C=C(\C#N)c1ccccc1`: the TGI in test [2] was 42.5 µM; in [3] it was over 100 µM; in [4], over 100 µM; in [5] it was 84.3 µM; in [6], over 100 µM; in test [7] it was over 100 µM.

`C/C(CN1C(=O)c2ccccc2C1=O)=N\NS(=O)(=O)c1ccc(C)cc1`: the TGI in test [1], in [2], in test [3], in [4], in test [5] and in [6] was over 100 µM throughout. Further, the TGI in test [7] is over 100 µM.

Turning to `Cc1ccc(S(=O)(=O)N2CCCN(S(=O)(=O)c3ccc(C)cc3)CCN(S(=O)(=O)c3ccc(C)cc3)CCCSCC2)cc1`, the TGI in test [1], in [8], in [2], in test [3], in test [4] and in test [5] was over 100 µM each time. The TGI in test [6], in test [7] and in test [9] was over 100 µM throughout.

Regarding `Cc1ccc(S(=O)(=O)c2c(N)c3nc4ccccc4n3c3nc4ccccc4nc23)cc1`, the TGI in [2], in test [3], in test [4], in test [5], in test [6] and in test [7] was over 100 µM throughout.

As for `CC1CC[C@]2(C(=O)O)CCC3(COC(=O)/C=C\c4ccc(O)cc4)C(=CCC4[C@@]5(C)CC[C@H](O)C(C)(C)C5CC[C@]43C)[C@@H]2[C@H]1C` (some centres not stated), the TGI in test [1] came out at 72.8 µM; in test [2], 43.4 µM; in [3], 35.5 µM; in test [4], 46.3 µM; in test [5] it was 21.6 µM; in test [6] it was 39.5 µM. Besides, in test [7], the TGI was 32.6 µM.

Turning to `CN(C)c1ccc2c(=O)c3ccccc3oc2n1`, the TGI in test [1], in test [2], in test [4], in test [5] and in [7] was over 100 µM in each case.

Take `N#Cc1ccccc1NC(=O)/C(=N\N)C(C(=O)c1ccncc1)C1OC(=O)c2ccccc21` (configuration not stated): the TGI in test [1], in test [2], in test [3], in test [4], in test [5] and in test [6] was over 100 µM each time. Also, the TGI in test [7] is over 100 µM.

As to `O=C1[C@@H]2C(c3ccccc3Br)=NO[C@@H]2C(=O)N1c1ccc(Cc2ccc(N3C(=O)[C@H]4C(c5ccccc5Br)=NO[C@H]4C3=O)cc2)cc1`, the TGI in test [1], in test [2], in [3], in [4], in test [5] and in [6] was over 100 µM each time. Further, the TGI in test [7] was over 100 µM.

With `C[N+](C)(C)CC1CCCC/C1=N\OC(=O)c1ccccc1` (configuration not stated), the TGI in [2], in [3], in [4], in test [5] and in [7] was over 100 µM throughout.

Consider `CCOC(=O)Nc1cc2nnc(-c3ccccc3)nc2c(N)n1`, for which the TGI in test [1] was determined as 37.5 µM; in test [2], 27.1 µM; in test [3], 25.7 µM; in test [4], 76.4 µM; in test [5], 39.9 µM; in test [6] it was 71.8 µM. This compound also returned a TGI in [7] of over 100 µM.

On to `NC1=NC(=O)/C(=C/c2ccccc2[N+](=O)[O-])C(N)=N1`, for which the TGI in test [1], in [2], in test [3], in [4], in test [5] and in test [6] was over 100 µM in each case. The TGI in test [7] is over 100 µM.

As for `Cc1ccccc1NC(=O)C(=O)C(C#N)c1ccc(Cl)cc1` (configuration not stated), the TGI in [1], in [2], in test [3], in [4], in [5] and in test [6] was over 100 µM in each case. For the same compound, in test [7], the TGI is over 100 µM.

With `CC1CC(C2=CC=CCS2)=Nc2ccccc2S1` (configuration not stated), the TGI in test [1], in test [2], in test [4], in test [5] and in [7] was over 100 µM in each case.

Take `CN1N=CSC12C(=O)N(c1ccc(Cl)cc1)C(=O)N2c1ccc(Cl)cc1` (configuration not stated): the TGI was 5.09 µM in [1]; over 100 µM in [2]; 32 µM in test [3]; over 100 µM in test [4]; 32 µM in test [5]; 8.66 µM in test [6]. Further, the TGI in test [7] came to 29.1 µM.

Consider `O=C(Nc1c(O)[nH]c(=S)[nH]c1=O)c1ccccc1F`, for which the TGI in [1], in test [2], in test [3], in test [4], in test [5] and in [6] was over 100 µM each time. This compound also registered a TGI in test [7] of over 100 µM.

On to `Cc1ccc(NC(=O)c2cc3cc(N=Nc4ccc(Br)cc4)ccc3oc2=O)cc1`, for which the TGI in test [1], in test [2], in test [3], in test [5] and in [6] was over 100 µM throughout.

For `CCOc1ccccc1NC(=O)CC1C(=O)Nc2ccccc2S1=O` (configuration not stated), the TGI in test [1], in test [2], in [3], in test [4], in test [6] and in [7] was over 100 µM each time.

Turning to `ON/N=C/c1cc2c(cc1Br)OCO2`, the TGI in test [1], in test [2], in [3], in [4], in test [5] and in test [6] was over 386 µM each time. Further, the TGI in test [7] was over 386 µM.

On to `COc1ccccc1NC(=O)c1sc2nc3c(cc2c1N)C(=O)CCC3`, for which the GI50 in [1] is over 100 µM; in [8] it was 0.295 µM; in test [2], 4.05 µM; in test [4], 3.97 µM; in test [5] it was 3.59 µM; in test [6], 4.87 µM. The values for the GI50 in test [7] and in test [9] were 3.99 µM and 2.91 µM, respectively. In addition, the TGI in [1] is over 100 µM; in test [8], 1.58 µM; in test [2], over 100 µM; in [4], over 100 µM; in test [5], over 100 µM; in test [6], over 100 µM. In addition, the TGI in test [7] and in test [9] was over 100 µM each time.

As to `Cc1cn(Cc2ccccc2CCO)c(=S)[nH]c1=O`, the TGI in [1], in test [2], in test [3], in test [4], in [5] and in test [6] was over 100 µM in each case. Further, in test [7], the TGI was over 100 µM.

Regarding `COc1ccc(C2CC(=O)c3c(O)cc(O)cc3O2)cc1O` (configuration not stated), the TGI in [1], in [2], in [3], in test [4], in test [5] and in test [6] was over 100 µM throughout. Further, in [7], the TGI was over 100 µM.

For `CC(C)/C=C1\CCC(CN2CCCC2)C1=O` (configuration not stated), the TGI is 14.4 µM in [1]; 4.8 µM in [2]; 25.6 µM in test [3]; 16.5 µM in test [4]; over 100 µM in test [5]; 49.6 µM in test [6]. Also, the TGI in [7] was 47.4 µM.

Consider `CN1C(=O)CC(c2cccc(C3CC(=O)N(C)C3=O)n2)C1=O` (configuration not stated), for which the TGI in test [1], in test [2], in [3], in [4], in test [5] and in test [6] was over 100 µM throughout. Also, the TGI in test [7] is over 100 µM.

Take `COc1cc(/C=C/c2ccncc2)cc(OC)c1OC`: the TGI was 97.8 µM in test [1]; over 100 µM in test [2]; over 100 µM in test [3]; over 100 µM in [4]; over 100 µM in test [6]; over 100 µM in test [7].

`CC(C)(C)OC1=C(OC(C)(C)C)C(O)(c2ccccc2)C1=O` (configuration not stated): the TGI in test [1], in [2], in test [3], in test [4], in [5] and in test [7] was over 100 µM in each case.

As for `OC1[C@H]([C@H]2CCCC[C@@H]2O)CCC[C@@H]1[C@@H]1CCCC[C@H]1O` (some centres not stated), the TGI in [1], in test [2], in test [3], in test [4], in test [5] and in [6] was over 100 µM each time. Further, in test [7], the TGI was over 100 µM.

For the compound `O=C(Nc1ccccc1-c1n[nH]c(=S)[nH]c1=O)C(F)(F)F`, the TGI in test [2], in test [3], in test [4], in test [5], in test [6] and in test [7] was over 100 µM in each case.

`COC(=O)C1=C(c2ccc(OC)c(OC)c2)OC(c2ccc(OC)c(OC)c2)C1` (configuration not stated): the TGI in test [1] was 44.6 µM; in test [2], over 100 µM; in [3] it was over 100 µM; in [4], over 100 µM; in test [5] it was 96.7 µM; in test [6], over 100 µM. In test [7], this compound yielded a TGI of over 100 µM.

With `Cc1cc(N(CCC#N)CCC#N)ccc1/C=C1N=C(/C=C\c2ccccc2)OC\1=O`, the TGI in test [1], in test [2], in test [3], in test [4], in test [5] and in test [6] was over 100 µM in each case. This compound registered a TGI in test [7] of over 100 µM.

On to `COc1ccc(C(=O)c2cc(OC)c(OC)c(OC)c2)cc1`, for which the TGI in test [1] is 13.2 µM; in [8] it was 0.0424 µM; in test [2], over 79.2 µM; in test [3], over 100 µM; in [4], 31.7 µM; in test [5], over 13.7 µM. For the same compound, the TGI in test [6] is 37.9 µM; in [7], over 9.77 µM; in test [9] it was over 100 µM.

Consider `CS/C(=N\C(=S)N(C)C)N(c1ccccc1)c1nc(=[N+](C)C)ss1`, for which the TGI was 5.98 µM in test [1]; 39.3 µM in test [2]; 11.6 µM in [3]; 28.1 µM in test [4]; over 100 µM in test [5]; 19.2 µM in [7].

Consider `FC(F)(F)Oc1cccc(-c2cnc3ccc(-c4ccncc4)nn23)c1`, for which the GI50 in [1] is 1.82 µM; in test [8] it was 2.11 µM; in test [2], 1.75 µM; in test [3] it was 1.34 µM; in test [4], 1.47 µM; in [5], 0.392 µM. For the same compound, the results for the GI50 in test [7] and in test [9] were 1.01 µM and 3.18 µM, respectively. Besides, the TGI in [1] was 4.29 µM; in test [8], 48.9 µM; in [2] it was over 100 µM; in test [3], over 100 µM; in test [4] it was over 100 µM; in [5], 2.11 µM. Besides, the TGI was 6.17 µM in [7] and over 100 µM in [9].
